Literature values as cited in patent US20220193065A1, “COMPOSITIONS AND METHODS TO TREAT NON-ALCOHOLIC FATTY LIVER DISEASES (NAFLD)” (Coherus Biosciences, Inc., priority 2019, published 2022).

Conditions: monotherapy; background statement

Cc1cc(F)c(C(=O)Nc2cccc(-c3nncn3C(C)C)n2)cc1-n1cnc(C2CC2)c1 [selonsertib]
primary endpoint of the STELLAR-4 phase 3 clinical trial: failed to meet the primary endpoint
